# Measured values: US20100152188A1, “Novel Heterocyclic Compounds” (priority 2005, published 2010)
# Like-named read-outs stand apart in the source and are kept apart here.
# Assays:
# MDAMB-231/U 251 = experiment: Anti-cancer screen (MTT), MDAMB-231/U 251; assay type: cell-based; details: for CC50: read-out: MDAMB-231/U 251 LC50
# Procedure, shortened: (§1)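 Cells (5000/well) in DMEM with 10% FBS were seeded 24 h, then exposed to compounds at 0.01, 0.1, 1, 10 and 100 µM in triplicate for 48 h at 37 °C. MTT was added for 3 h, formazan dissolved in DMSO and absorbance read at 570 nm; GI50, TGI and LC50 derived from % growth versus T0.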
# HDAC = HDAC inhibition; assay type: biochemical; details: for HDAC Inhibition 1 μM: compound at 1 μM; for HDAC Inhibition 10 μM: compound at 10 μM
# HCT116 = experiment: Anti-cancer screen (MTT), HCT116; assay type: cell-based; details: Homo sapiens, HCT-116, 48 hours with compound, tested at 0.01-100 µM
# Procedure, shortened: as §1
# [1] = test system: NCIH460, HCT116, MDAMB-231/U 251; experiment: Anti-cancer screen, mean GI50 over the cell lines; assay type: cell-based; details: in µM
# Procedure, shortened: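 HCT116, NCIH460 and U251 cells (5000/well) were seeded for 24 h, then exposed in triplicate to 0.01, 0.1, 1, 10 and 100 µM final compound for 48 h. Viability was read by MTT (3 h, absorbance 570 nm), and percent growth was calculated against untreated controls and a T0 plate read at compound addition.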
# NCIH460 = experiment: Anti-cancer screen (MTT), NCIH460; assay type: cell-based; details: Homo sapiens, NCI-H460, 48 hours with compound, tested at 0.01-100 µM
# Procedure, shortened: as §1
# [2] = 48 hours with compound, MTT, tested at 0.01-100 µM
SMILES,CC50 (MDAMB-231/U 251; 48 h) [µM],GI50 (MDAMB-231/U 251; [2]) [µM],IC (TGI) (MDAMB-231/U 251; [2]) [µM],HDAC Inhibition 1 μM (HDAC),HDAC Inhibition 10 μM (HDAC),GI50 (HCT116) [µM],IC (TGI) (HCT116) [µM],LC50 (concentration giving 50% net cell kill relative to T0) (HCT116) [µM],Mean GI50 [1],GI50 (NCIH460) [µM],IC (TGI) (NCIH460) [µM],LC50 (NCIH460) [µM],CC50 (MDAMB-231/U 251; [2]) [µM],CC50 (HCT116; read-out: HCT116 LC50) [µM],IC50 (HDAC) [µM]
"CC(=O)N(O)C(=O)Cc1csc(NC(=O)OCc2ccsc2)n1 [Example 77, 3-thienylmethyl(4-{2-[acetyl(hydroxy)amino]-2-oxoethyl}-1,3-thiazol-2-yl)carbamate]",> 100,6,65,7.7,14.8,60,> 100,> 100,39.7,53,> 100,> 100,,,
"CC(=O)N(O)C(=O)Cc1csc(NC(=O)OCc2ccc(Br)s2)n1 [Example 78, (5-bromo-2-thienyl)methyl(4-{2-[acetyl(hydroxy)amino]-2-oxoethyl}-1,3-thiazol-2-yl)carbamate]",,20,75,3.61,35.88,30,80,,18.8,6.5,45,> 100,> 100,> 100,
"CC(=O)N(O)C(=O)Cc1csc(NC(=O)OCc2cccs2)n1 [Example 80, 2-Thienylmethyl(4-{2-[acetyl(hydroxy)amino]-2-oxoethyl}-1,3-thiazol-2-yl)carbamate]",> 100,35,96,,5.28,> 100,> 100,> 100,>100,53,> 100,> 100,,,
"CC(=O)ONC(=O)c1ccc(CNC(=O)OCc2cccs2)cc1 [Example 82, 2-Thienylmethyl(4-{[(acetyloxy)amino]carbonyl}benzyl)carbamate]",> 100,28,52,48.96,86.12,7,41,78,19.66,24,62,> 100,,,
"CC(=O)ONC(=O)c1ccc(CNC(=O)OCc2nccs2)cc1 [Example 83, 1,3-thiazol-2-ylmethyl(4-{[(acetyloxy)amino]carbonyl}benzyl)carbamate]",> 100,9,66,22.38,63.89,10,56,84,16.33,30,60,90,,,
"COC(=O)ONC(=O)c1ccc(CNC(=O)OCc2cccs2)cc1 [Example 84, 2-Thienylmethyl[4-({[(methoxycarbonyl)oxy]amino}carbonyl)benzyl]carbamate]",> 100,54,> 100,20.20,61.74,> 100,> 100,> 100,>100,81,> 100,> 100,,,
"O=C(CCCCCNC(=O)Cc1csc(NC(=O)OCc2cccnc2)n1)NO [Example 87, pyridin-3-ylmethyl[4-(2-{[6-(hydroxyamino)-6-oxohexyl]amino}-2-oxoethyl)-1,3-thiazol-2-yl]carbamate]",> 100,10,> 100,42.24,87.80,> 100,> 100,> 100,>100,> 100,> 100,> 100,,,
"O=C(CCCCCNC(=O)Cc1csc(NC(=O)OCc2nc3ccccc3s2)n1)NO [Example 90, 1,3-Benzothiazol-2-ylmethyl[4-(2-{[6-(hydroxyamino)-6-oxohexyl]amino}-2-oxoethyl)-1,3-thiazol-2-yl]carbamate]",98,0.06,48,61.63,98.85,38,65,> 100,25.35,38,98,> 100,,,
"O=C(CCCNC(=O)Cc1csc(NC(=O)OCc2nc3ccccc3s2)n1)NO [Example 91, 1,3-Benzothiazol-2-ylmethyl[4-(2-{[4-(hydroxyamino)-4-oxobutyl]amino}-2-oxoethyl)-1,3-thiazol-2-yl]carbamate]",> 100,21,89,10.73,25.05,51,> 100,> 100,35.7,35,> 100,> 100,,,
"O=C(CCCCNC(=O)Cc1csc(NC(=O)OCc2nc3ccccc3s2)n1)NO [Example 93, 1,3-Benzothiazol-2-ylmethyl[4-(2-{[5-(hydroxyamino)-5-oxopentyl]amino}-2-oxoethyl)-1,3-thiazol-2-yl]carbamate]",> 100,7,55,26.26,76.23,40,88,> 100,32.3,50,> 100,> 100,,,
"O=C(CCCNC(=O)Cc1csc(NC(=O)OCc2nccs2)n1)NO [Example 95, 1,3-Thiazol-2-ylmethyl[4-(2-{[4-(hydroxyamino)-4-oxobutyl]amino}-2-oxoethyl)-1,3-thiazol-2-yl]carbamate]",> 100,> 100,> 100,−2.89,4.19,> 100,> 100,> 100,>100,93,> 100,> 100,,,
"O=C(CCCCCNC(=O)Cc1csc(NC(=O)OCc2nccs2)n1)NO [Example 96, 1,3-Thiazol-2-ylmethyl[4-(2-{[6-(hydroxyamino)-6-oxohexyl]amino}-2-oxoethyl)-1,3-thiazol-2-yl]carbamate]",> 100,70,> 100,52.41,86.63,> 100,> 100,> 100,>100,> 100,> 100,> 100,,,
"O=C(CCCNC(=O)Cc1csc(NC(=O)OCc2ccncc2)n1)NO [Example 97, Pyridin-4-ylmethyl[4-(2-{[4-(hydroxyamino)-4-oxobutyl]amino}-2-oxoethyl)-1,3-thiazol-2-yl]carbamate]",> 100,> 100,> 100,5.02,5.80,> 100,> 100,> 100,>100,100,> 100,> 100,,,
"O=C(Cc1csc(NC(=O)c2ccc(CNC(=O)OCc3cccs3)cc2)n1)NO [Example 101, 2-Thienylmethyl{4-[({4-[2-(hydroxyamino)-2-oxoethyl]-1,3-thiazol-2-yl}amino)carbonyl]benzyl}carbamate]",> 100,> 100,> 100,8.52,45.50,14,> 100,> 100,>100,> 100,> 100,> 100,,,
"O=C(CCCCCNC(=O)c1ccc(CNC(=O)OCc2cccs2)cc1)NO [Example 102, 2-Thienylmethyl[4-({[6-(hydroxyamino)-6-oxohexyl]amino}carbonyl)benzyl]carbamate]",60,4.8,9.5,79.08,85.52,4.8,10,> 100,4.9,5,9.5,100,,,0.25
